# According to article PMC2676941 (The Journal of membrane biology, 2008):
# Experiments:
# [1] = system: plasmodial surface anion channel (PSAC); assay type: cell-based, Plasmodium falciparum; conditions: for concentration to inhibit proline transport versus hydroxyproline transport: data not shown
# [2] = system: plasmodial surface anion channel (PSAC); conditions: compared with sorbitol and alanine transport; ref Lisk et al. 2007; cited from earlier work
smiles,measurement,setting,value
COc1ccc(Cl)cc1C(=O)NCCc1ccc(S(=O)(=O)NC(=O)NC2CCCCC2)cc1 [glybenclamide],concentration to inhibit proline transport versus hydroxyproline transport,[1],required higher concentrations
O=C1CN(/N=C/c2ccc(-c3ccc([N+](=O)[O-])cc3)o2)C(O)=N1 [Dantrolene],concentration to inhibit proline transport versus hydroxyproline transport,[1],required higher concentrations
O=C(O)c1cc([N+](=O)[O-])ccc1NCCCc1ccccc1 [NPPB],hydroxyproline uptake (osmotic lysis over 90 min),[1]; 10 μM NPPB,abolished
same,proline-mediated lysis,[1]; 10 μM NPPB,slowed but not abolished
same,higher inhibitor concentration required to comparably reduce proline uptake,[1]; relative to the concentration that abolishes hydroxyproline uptake,10 fold
O=C(CCc1ccc(O)cc1)c1c(O)cc(O)cc1O[C@@H]1O[C@H](CO)[C@@H](O)[C@H](O)[C@H]1O [phloridzin],inhibition of PhTMA-Cl and isoleucine transport,[2],less effectively inhibited
